Assay results as given in patent US6555533B2, “Use of certain substituted caprolactams in treating tumors” (Novartis AG, priority 1998, dated 2003).
Read-outs that look alike come from different tables or passages of the source. Marks after values point to notes of the source that are not given here.

Legend:
[1] = tested on: MDA-MB-435 breast carcinoma; assay: Anchorage Dependent Growth Monolayer Assay (ADGMA), MDA-MB-435; format: cell-based, human; settings: 3-day exposure, MTS readout, read-out: IC50 (average±S.D.) MDA-MB-435
Protocol: (§1) As indicated above, all of the compounds of formula I, and their corresponding pharmaceutically acceptable acid addition salts, are anti-tumor agents and are, therefore, useful in inhibiting the growth of various lymphomas, sarcomas, carcinomas, myelomas, and leukemia cell lines.
(§2) The ADGMA compares the number of viable cells following a 3-day exposure to a test compound relative to a number of cells present at the time the test compound was added. […] The absorbance at 490 nm (A490) of the formazan derivative is proportional to the number of viable cells. The IC50 for a test compound is the concentration of compound required to reduce the final cell number to 50% of the final control cell number. If cell proliferation is inhibited, the assay further defines compounds as cytostatic (cell number after 3-day compound incubation >cell number at time of compound addition) or cytotoxic (cell number after 3-day compound incubation <cell number at time of compound addition).
The MDA-MB-435 breast carcinoma line was obtained from the American Type Culture Collection (ATCC) and used between passages 4-20 following thawing. MDA-MB-435 breast carcinoma was maintained and plated in DME/F12 medium containing 10% fetal bovine serum, 15 mM HEPES (pH=7.4), 100 units/mL penicillin, and 100 μg/mL streptomycin.
(§3) Cell lines are trypsinized and counted using a Coulter counter to determine plating densities. Cells are then plated in their respective maintenance media (100 μL/well) in 96 well plates at the following densities: MDA-MB-435, 3,000 cells/well; A549 and HCT-116, 700 cells/well; are PC-3, 2500 cells/well. The number of cells plates as determined in preliminary experiments, results in cell densities of 75-90% of confluency by 4 days after plating. Initial cell densities, assayed one day after plating, are roughly 0.15-0.20 absorbance units greater than the media blank. Ninety-six well plates are seeded on day 0 and the test compounds are added on day 1. A control plate is created for each cell line that receives media only in row A and cells in row B. One day following plating, test compounds are added (in a final volume of 100 μL) to the test plates. Control plates receive 10 μL MTS mixture (prepared fresh on day of addition to cell plates at a ratio of 10 μL of a 0.92 mg/mL solution of PMS to a 190 μL of a 2 mg/mL solution of MTS) and 100 μL media. A490 of control plates is read 4 h after MTS addition to determine initial cell density values for each cell line. Three days after addition of test compound, 10 μL/well of MTS mixture is added to the test plates and A490 is read 4 h later. A490 values for wells containing cells are corrected for media absorbance, then normalized to initial density readings to determine percent net growth. IC50 values are determined from graphs of percent net growth as a function of compound concentration. Percent net growth is calculated as (Cell+Drug A490−Initial A490/Cell+Drug Vehicle A490−Initial A490).

[2] = tested on: A549 non-small cell lung carcinoma; assay: Anchorage Dependent Growth Monolayer Assay (ADGMA), A549; format: cell-based, human; settings: 3-day exposure, MTS readout, read-out: IC50 (average±S.D.) A549
Protocol: as §1, §2
(§4) A549, HCT-116 and PC-3 cells were maintained in RPMI 1640 containing 5% FBS, […], 1 nM β-estradiol, 1 nM testosterone, 100 units/mL penicillin and 100 ug/mL streptomycin.
as §3

HCT-116 colon carcinoma = assay: Anchorage Dependent Growth Monolayer Assay (ADGMA), HCT-116; format: cell-based, human; settings: 3-day exposure, MTS readout, read-out: IC50 (average±S.D.) HCT-116
Protocol: as §1, §2, §4, §3

PC-3 prostate carcinoma = assay: Anchorage Dependent Growth Monolayer Assay (ADGMA), PC-3; format: cell-based, human; settings: 3-day exposure, MTS readout, read-out: IC50 (average±S.D.) PC-3
Protocol: as §1, §2, §4, §3

[3] = tested on: MDA-MB-435 tumor xenografts; assay: MDA-MB-435 breast carcinoma xenograft model; format: in vivo, athymic (nu/nu) mice
Protocol: Positive controls are carried out with doxorubicin administered 3 times per week i.v.
The following results were obtained for compounds of Ex.1-Ex.12 tested against MDA-MB-435 tumor xenografts 3×/week for 3 weeks: […]

A549 tumor xenografts = tested on: A549 tumor xenografts
Text: Utilizing this model, one can measure the ability of test compounds to inhibit the growth of human tumor xenografts growing subcutaneously (s.c.) in athymic nude mice. The histologic tumor types employed were MDA-MB-435 breast, A549 non-small cell lung, HCT-116 colon and PC-3 prostate carcinomas.
A549 non-small cell lung carcinoma xenograft model: Briefly, 10 million cells were implanted s.c. into the right flank of athymic (nu/nu) mice, and were allowed to grow until a mass of approximately 120 mm^3 was established. The test compounds are administered three times per week intravenously (i.v.) for three weeks in 5% dextrose, 10%DMSO in water. The test compounds are administered in dose-response fashion in order to evaluate and document the full potential range of activity (efficacy and toxicity) for a given compound. Positive controls are carried out with mitomycin C administered 3 times per week intraperitioneally (i.p.).
Toxicity was monitored by recording average group body weights twice weekly, and by daily observation of general health. Efficacy was monitored by taking measurements of tumor length, width, and depth weekly using digital calipers coupled to automated data collectors. Mean tumor volume (MTV) at initiation of therapy was subtracted from final MTV in order to express the actual tumor growth during treatment (ΔMTV). Anti-tumor activity was expressed as %T/C (ΔMTV of treated group÷ΔMTV of control group×100). Regressions were calculated using the formula: (T/T0−1)×100%, where T is the tumor volume for the treatment group at the end of the experiment, and T0 is the tumor volume at the beginning of the experiment. Statistical significance was evaluated using a one-tailed Student's t-test (p<0.05).

HCT-116 tumor xenografts = assay: HCT-116 colon carcinoma xenograft model; format: in vivo, athymic (nu/nu) mice
Protocol: Positive controls are carried out with 5-fluorouracil administered 1 time per week i.v.

PC-3 tumor xenografts = assay: PC-3 prostate carcinoma xenograft model; format: in vivo, athymic (nu/nu) mice
H2O solubility = format: physicochemical; settings: water; for Example 1 stated for the solid before preparative hplc
[4] = 2 mg/kg i.v. 3 times per week (positive control)
[5] = 10 μmol/kg i.v. 3×/week for 3 weeks
[6] = 33 μmol/kg i.v. 3×/week for 3 weeks
[7] = 100 μmol/kg i.v. 3×/week for 3 weeks

SMILES	IC50 ([2]; Homo sapiens, A549, 72 h)	IC50 (HCT-116 colon carcinoma; Homo sapiens, HCT-116, 72 h)	IC50 (PC-3 prostate carcinoma; Homo sapiens, 72 h)	% T/C [3, 5]	Dead/Total [3, 5]	% T/C [3, 6]	Dead/Total [3, 6]	% T/C (A549 tumor xenografts; [6])	Dead/Total (A549 tumor xenografts; [6])	Δ MTV (A549 tumor xenografts; [6])	Dead/Total (A549 tumor xenografts; [7])	Δ MTV (A549 tumor xenografts; [7])	% T/C (HCT-116 tumor xenografts; [5])	Dead/Total (HCT-116 tumor xenografts; [5])	Δ MTV (HCT-116 tumor xenografts; [5])	% T/C (HCT-116 tumor xenografts; [6])	Dead/Total (HCT-116 tumor xenografts; [6])	Δ MTV (HCT-116 tumor xenografts; [6])	% T/C (HCT-116 tumor xenografts; [7])	Dead/Total (HCT-116 tumor xenografts; [7])	other results
COc1cccc2c1C(=O)c1c(O)c3c(c(O)c1C2=O)C[C@@](O)(C(=O)CO)C[C@@H]3O[C@H]1C[C@H](N)[C@H](O)[C@H](C)O1 [doxorubicin, reference compound]	504 ± 320 nM	39 ± 6 nM	327 ± 123 nM	–	–	–	–	–	–	–	–	–	–	–	–	–	–	–	–	–	IC50 ([1]; Homo sapiens, MDA-MB-435, 72 h): 399 ± 314 nM; % T/C [3, 4]: 42* %; Dead/Total [3, 4]: 0/8
CO[C@@H](C(=O)N[C@H]1CC[C@@H](OC(=O)CCc2ccccc2)CNC1=O)[C@H](O)[C@@H](O)[C@H](O)/C=C/C(C)(C)C [Ex. 4, (2R, 3R, 4S, 5R, 6E)-3,4,5-Trihydroxy-2-methoxy-8,8-dimethyl-N-[(3S, 6R)-hexahydro-2-oxo-6-(1-oxo-3-phenylpropoxy)-2H-azepin-3-yl]non-6-enamide]	20 ± 9 nM	7 ± 3 nM	7 ± 4 nM	53* %	0/8	12* %	0/8	17* %	0/8	13 mm^3	1/8	−10 mm^3	70* %	0/8	280 mm^3	22* %	0/8	87 mm^3	11* %	1/8	IC50 ([1]; Homo sapiens, MDA-MB-435, 72 h): 12 ± 14 nM; % regression [3, 7]: 58 regression* %; Dead/Total [3, 7]: 0/8; Δ MTV [3, 7]: −23 mm^3; % regression (A549 tumor xenografts; [7]): 22 regression* %; Δ MTV (HCT-116 tumor xenografts; [7]): 44 mm^3; % T/C (PC-3 tumor xenografts; [5]): 77%; Dead/Total (PC-3 tumor xenografts; [5]): 0/8; Δ MTV (PC-3 tumor xenografts; [5]): 1722 mm^3; % T/C (PC-3 tumor xenografts; [6]): 29%; Dead/Total (PC-3 tumor xenografts; [6]): 0/8; Δ MTV (PC-3 tumor xenografts; [6]): 638 mm^3; % T/C (PC-3 tumor xenografts; [7]): 4* %; Dead/Total (PC-3 tumor xenografts; [7]): 0/8; Δ MTV (PC-3 tumor xenografts; [7]): 100 mm^3
CO[C@@H](C(=O)N[C@H]1CC[C@@H](OC(=O)CCc2cccnc2)CNC1=O)[C@H](O)[C@@H](O)[C@H](O)/C=C/C(C)(C)C [Ex. 5, (2R, 3R, 4S, 5R, 6E)-3,4,5-Trihydroxy-2-methoxy-8,8-dimethyl-N-[(3S, 6R)-hexahydro-2-oxo-6-(1-oxo-3-[3-pyridyl]propoxy)-2H-azepin-3-yl]non-6-enamide]	1040 ± 758 nM	464 ± 142 nM	348 ± 26 nM	92%	0/8	44* %	0/8	46%	0/8	35 mm^3	0/8	18 mm^3	93%	0/8	376 mm^3	67* %	0/8	270 mm^3	28* %	0/8	% T/C (A549 tumor xenografts; [5]): 50%; Dead/Total (A549 tumor xenografts; [5]): 0/8; Δ MTV (A549 tumor xenografts; [5]): 38 mm^3; % T/C (A549 tumor xenografts; [7]): 24* %; Δ MTV (HCT-116 tumor xenografts; [7]): 111 mm^3
CO[C@@H](C(=O)N[C@H]1CC[C@@H](OC(=O)C2CCCCC2)CNC1=O)[C@H](O)[C@@H](O)[C@H](O)/C=C/C(C)(C)C [Ex. 1, (2R, 3R, 4S, 5R, 6E)-3,4,5-Trihydroxy-2-methoxy-8,8-dimethyl-N-[(3S, 6R)-hexahydro-2-oxo-6-(cyclohexylcarbonyl)oxy-2H-azepin-3-yl]non-6-enamide]	78 ± 38 nM	41 ± 3 nM	39 ± 13 nM	61* %	0/8	24* %	0/8	38%	0/8	29 mm^3	1/8	11 mm^3	89%	0/8	360 mm^3	35* %	0/8	142 mm^3	10* %	0/8	IC50 ([1]; Homo sapiens, MDA-MB-435, 72 h): 41 ± 26 nM; % regression [3, 7]: 29 regression* %; Dead/Total [3, 7]: 0/8; Δ MTV [3, 7]: −11 mm^3; % T/C (A549 tumor xenografts; [5]): 42%; Dead/Total (A549 tumor xenografts; [5]): 0/8; Δ MTV (A549 tumor xenografts; [5]): 32 mm^3; % T/C (A549 tumor xenografts; [7]): 14* %; Δ MTV (HCT-116 tumor xenografts; [7]): 42 mm^3; % T/C (PC-3 tumor xenografts; [5]): 87%; Dead/Total (PC-3 tumor xenografts; [5]): 0/7; Δ MTV (PC-3 tumor xenografts; [5]): 1931 mm^3; % T/C (PC-3 tumor xenografts; [6]): 32%; Dead/Total (PC-3 tumor xenografts; [6]): 0/8; Δ MTV (PC-3 tumor xenografts; [6]): 718 mm^3; % T/C (PC-3 tumor xenografts; [7]): 8* %; Dead/Total (PC-3 tumor xenografts; [7]): 1/8; Δ MTV (PC-3 tumor xenografts; [7]): 185 mm^3
CO[C@@H](C(=O)N[C@H]1CC[C@@H](OC(=O)C2CCCC2)CNC1=O)[C@H](O)[C@@H](O)[C@H](O)/C=C/C(C)(C)C [Ex. 2]	–	–	–	67%	0/8	13* %	0/8	37* %	0/8	28 mm^3	0/7	7 mm^3	75%	0/8	303 mm^3	56* %	0/8	225 mm^3	25* %	0/8	IC50 [1]: 128 ± 47 nM; IC50 [2]: 201 ± 100 nM; IC50 (HCT-116 colon carcinoma): 120 ± 29 nM; IC50 (PC-3 prostate carcinoma): 145 ± 53 nM; % T/C (A549 tumor xenografts; [5]): 58%; Dead/Total (A549 tumor xenografts; [5]): 0/8; Δ MTV (A549 tumor xenografts; [5]): 44 mm^3; % T/C (A549 tumor xenografts; [7]): 9* %; Δ MTV (HCT-116 tumor xenografts; [7]): 102 mm^3; H2O solubility (H2O solubility): 18 mg/mL
